According to ChEMBL document CHEMBL1157058, “3D-QSAR studies on quinazoline antifolate thymidylate synthase inhibitors by CoMFA and CoMSIA models” (Eur J Med Chem, 2010):

Target: Thymidylate synthase (Homo sapiens, UniProt P04818)
Assay: Inhibition of thymidylate synthase

Chain of Thymidylate synthase (P04818 whole entry): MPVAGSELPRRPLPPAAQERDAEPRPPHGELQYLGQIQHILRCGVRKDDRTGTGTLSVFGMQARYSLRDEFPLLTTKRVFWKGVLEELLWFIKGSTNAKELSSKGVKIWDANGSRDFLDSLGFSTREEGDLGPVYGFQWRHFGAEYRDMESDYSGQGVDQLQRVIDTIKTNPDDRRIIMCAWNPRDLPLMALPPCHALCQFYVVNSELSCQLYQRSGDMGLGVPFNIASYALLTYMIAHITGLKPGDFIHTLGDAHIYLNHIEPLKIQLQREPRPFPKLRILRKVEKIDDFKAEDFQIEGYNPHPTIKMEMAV

For `C#CCN(Cc1ccc2nc(C)[nH]c(=O)c2c1)c1ccc(C(=O)N[C@@H](CCC(=O)O)C(=O)O)c(OC)c1`, the IC50 was 67.6 nM.
Work on `Cc1nc2ccc(CN(CCCO)c3ccc(C(=O)N[C@@H](CCC(=O)O)C(=O)O)cc3)cc2c(=O)[nH]1` yielded an IC50 of 537 nM.
`Cc1nc2ccc(CN(CCO)c3cnc(C(=O)N[C@@H](CCC(=O)O)C(=O)O)s3)cc2c(=O)[nH]1` was tested, and the IC50 was 417 nM.
Compound `Cc1nc2ccc(CN(CCS)c3ccc(C(=O)N[C@@H](CCC(=O)O)C(=O)O)cc3)cc2c(=O)[nH]1` has an IC50 of 1780 nM.
In the case of `Cc1nc2ccc(CN(C)c3ccc(C(=O)N[C@@H](CCC(=O)O)C(=O)O)cn3)cc2c(=O)[nH]1`, the IC50 is reported as 4270 nM.
`Cc1nc2ccc(CN(C)c3ccc(C(=O)N[C@@H](CCC(=O)O)C(=O)O)c(C)c3)cc2c(=O)[nH]1` was tested, and the IC50 was 933 nM.
Work on `Cc1nc2ccc(CNc3ccc(C(=O)N[C@@H](CCC(=O)O)C(=O)O)cc3)cc2c(=O)[nH]1` yielded an IC50 of 4470 nM.
Compound `C#CCN(Cc1ccc2nc(OC)[nH]c(=O)c2c1)c1ccc(C(=O)N[C@@H](CCC(=O)O)C(=O)O)c(F)c1` has an IC50 of 36.3 nM.
In the case of `C#CCN(Cc1ccc2nc[nH]c(=O)c2c1)c1ccc(C(=O)N[C@@H](CCC(=O)O)C(=O)O)c(F)c1`, the IC50 is reported as 57.5 nM.
`Cc1nc2ccc(CN(CCF)c3ccc(C(=O)N[C@@H](CCC(=O)O)C(=O)O)cc3)cc2c(=O)[nH]1` showed an IC50 of 240 nM.
`C#CCN(Cc1ccc2nc(C)[nH]c(=O)c2c1)c1cnc(C(=O)N[C@@H](CCC(=O)O)C(=O)O)s1` showed an IC50 of 229 nM.
Compound `Cc1nc2ccc(CN(CC#N)c3ccc(C(=O)N[C@@H](CCC(=O)O)C(=O)O)c(F)c3)cc2c(=O)[nH]1` has an IC50 of 170 nM.
In the case of `CCN(Cc1ccc2nc(C)[nH]c(=O)c2c1)c1ccc(C(=O)N[C@@H](CCC(=O)O)C(=O)O)c(OC)c1`, the IC50 is reported as 191 nM.
Compound `CCN(Cc1ccc2nc(C)[nH]c(=O)c2c1)c1ccc(C(=O)N[C@@H](CCC(=O)O)C(=O)O)c([N+](=O)[O-])c1` has an IC50 of 145 nM.
Work on `Cc1nc2ccc(CN(CCF)c3ccc(C(=O)N[C@@H](CCC(=O)O)C(=O)O)nc3)cc2c(=O)[nH]1` yielded an IC50 of 158 nM.
Work on `Cc1nc2ccc(CN(CCCO)c3ccc(C(=O)N[C@@H](CCC(=O)O)C(=O)O)s3)cc2c(=O)[nH]1` yielded an IC50 of 3390 nM.
Work on `CCN(Cc1ccc2nc(C)[nH]c(=O)c2c1)c1ncc(C(=O)N[C@@H](CCC(=O)O)C(=O)O)s1` yielded an IC50 of 759 nM.
Compound `Cc1nc2ccc(CN(CC(N)=O)c3ccc(C(=O)N[C@@H](CCC(=O)O)C(=O)O)c(F)c3)cc2c(=O)[nH]1` has an IC50 of 1350 nM.
In the case of `Cc1nc2ccc(CN(CC#N)c3ccc(C(=O)N[C@@H](CCC(=O)O)C(=O)O)s3)cc2c(=O)[nH]1`, the IC50 is reported as 3090 nM.
`C#CCN(Cc1ccc2nc(C)[nH]c(=O)c2c1)c1ccc(C(=O)N[C@@H](CCC(=O)O)C(=O)O)c(Cl)c1` gave an IC50 of 74.1 nM.
Compound `Cc1nc2ccc(CNc3ccc(C(=O)N[C@@H](CCC(=O)O)C(=O)O)cc3F)cc2c(=O)[nH]1` has an IC50 of 9330 nM.
`Cc1nc2ccc(CN(CCBr)c3ccc(C(=O)N[C@@H](CCC(=O)O)C(=O)O)cc3)cc2c(=O)[nH]1` was tested, and the IC50 was 1290 nM.
In the case of `Cc1nc2ccc(CN(C)c3ccc(C(=O)N[C@@H](CCC(=O)O)C(=O)O)c(N)c3)cc2c(=O)[nH]1`, the IC50 is reported as 851 nM.
For `C#CCN(Cc1ccc2nc(C)[nH]c(=O)c2c1)c1ccc(C(=O)N[C@@H](CCC(=O)O)C(=O)O)c(C(F)(F)F)c1`, the IC50 was 479 nM.
For `Cc1nc2ccc(CN(C)c3ccc(C(=O)N[C@@H](CCC(=O)O)C(=O)O)cc3)cc2c(=O)[nH]1`, the IC50 was 302 nM.
`COCCCN(Cc1ccc2nc(C)[nH]c(=O)c2c1)c1ccc(C(=O)N[C@@H](CCC(=O)O)C(=O)O)cc1` was tested, and the IC50 was 12900 nM.
`Cc1nc2ccc(CN(C)c3ccc(C(=O)N[C@@H](CCC(=O)O)C(=O)O)c(F)c3)cc2c(=O)[nH]1` showed an IC50 of 120 nM.
`Cc1nc2ccc(CN(CCN)c3ccc(C(=O)N[C@@H](CCC(=O)O)C(=O)O)c(F)c3)cc2c(=O)[nH]1` showed an IC50 of 11700 nM.
Work on `Cc1nc2ccc(CN(C)c3cnc(C(=O)N[C@@H](CCC(=O)O)C(=O)O)s3)cc2c(=O)[nH]1` yielded an IC50 of 417 nM.
In the case of `CCN(Cc1ccc2nc(C)[nH]c(=O)c2c1)c1ccc(C(=O)N[C@@H](CCC(=O)O)C(=O)O)nc1`, the IC50 is reported as 151 nM.
`C=CCN(Cc1ccc2nc(C)[nH]c(=O)c2c1)c1ccc(C(=O)N[C@@H](CCC(=O)O)C(=O)O)cc1` was tested, and the IC50 was 479 nM.
In the case of `CC(=O)CN(Cc1ccc2nc(C)[nH]c(=O)c2c1)c1ccc(C(=O)N[C@@H](CCC(=O)O)C(=O)O)cc1`, the IC50 is reported as 25100 nM.
`Cc1nc2ccc(CN(CCCO)c3cnc(C(=O)N[C@@H](CCC(=O)O)C(=O)O)s3)cc2c(=O)[nH]1` showed an IC50 of 1740 nM.
Work on `Cc1nc2ccc(CN(CCF)c3cnc(C(=O)N[C@@H](CCC(=O)O)C(=O)O)s3)cc2c(=O)[nH]1` yielded an IC50 of 191 nM.
`C=CCN(Cc1ccc2nc(C)[nH]c(=O)c2c1)c1ccc(C(=O)N[C@@H](CCC(=O)O)C(=O)O)s1` gave an IC50 of 1660 nM.
`Cc1nc2ccc(CN(CCCO)c3ccc(C(=O)N[C@@H](CCC(=O)O)C(=O)O)cc3F)cc2c(=O)[nH]1` showed an IC50 of 977 nM.
With `C#CCN(Cc1ccc2nc(C)[nH]c(=O)c2c1)c1ccc(C(=O)N[C@@H](CCC(=O)O)C(=O)O)cc1F` the IC50 was 1450 nM.
`CCN(Cc1ccc2nc(C)[nH]c(=O)c2c1)c1ccc(C(=O)N[C@@H](CCC(=O)O)C(=O)O)c(C)c1` showed an IC50 of 316 nM.
With `Cc1nc2ccc(CN(CCF)c3ccc(C(=O)N[C@@H](CCC(=O)O)C(=O)O)cc3F)cc2c(=O)[nH]1` the IC50 was 1740 nM.
`C=CCN(Cc1ccc2nc(C)[nH]c(=O)c2c1)c1ccc(C(=O)N[C@@H](CCC(=O)O)C(=O)O)nc1` was tested, and the IC50 was 759 nM.
In the case of `Cc1nc2ccc(CNc3ccc(C(=O)N[C@@H](CCC(=O)O)C(=O)O)s3)cc2c(=O)[nH]1`, the IC50 is reported as 24500 nM.
`CCN(Cc1ccc2nc(C)[nH]c(=O)c2c1)c1nnc(C(=O)N[C@@H](CCC(=O)O)C(=O)O)s1` showed an IC50 of 933 nM.
`C#CCN(Cc1ccc2nc(C)[nH]c(=O)c2c1)c1ccc(C(=O)N[C@@H](CCC(=O)O)C(=O)O)c(O)c1` was tested, and the IC50 was 89.1 nM.
`Cc1nc2ccc(CN(C)c3ccc(C(=O)N[C@@H](CCC(=O)O)C(=O)O)cc3F)cc2c(=O)[nH]1` showed an IC50 of 1150 nM.
`C#CCN(Cc1ccc2nc(C)[nH]c(=O)c2c1)c1ccc(C(=O)N[C@@H](CCC(=O)O)C(=O)O)s1` gave an IC50 of 437 nM.
`C=CCN(Cc1ccc2nc(C)[nH]c(=O)c2c1)c1ccc(C(=O)N[C@@H](CCC(=O)O)C(=O)O)cc1F` gave an IC50 of 5130 nM.
`CCN(Cc1ccc2nc(C)[nH]c(=O)c2c1)c1ccc(C(=O)N[C@@H](CCC(=O)O)C(=O)O)cc1` was tested, and the IC50 was 170 nM.
Work on `CCN(Cc1ccc2nc(C)[nH]c(=O)c2c1)c1cnc(C(=O)N[C@@H](CCC(=O)O)C(=O)O)s1` yielded an IC50 of 229 nM.
`Cc1nc2ccc(CN(CCCO)c3ccc(C(=O)N[C@@H](CCC(=O)O)C(=O)O)c(F)c3)cc2c(=O)[nH]1` showed an IC50 of 589 nM.
Compound `C#CCN(Cc1ccc2nc(C)[nH]c(=O)c2c1)c1ccc(C(=O)N[C@@H](CCC(=O)O)C(=O)O)c([N+](=O)[O-])c1` has an IC50 of 129 nM.
In the case of `C#CCN(Cc1ccc2nc(C)[nH]c(=O)c2c1)c1ccc(C(=O)N[C@@H](CCC(=O)O)C(=O)O)nc1`, the IC50 is reported as 39.8 nM.
`CCN(Cc1ccc2nc(C)[nH]c(=O)c2c1)c1ccc(C(=O)N[C@@H](CCC(=O)O)C(=O)O)c(F)c1` gave an IC50 of 44.7 nM.
`Cc1nc2ccc(CN(CCO)c3ccc(C(=O)N[C@@H](CCC(=O)O)C(=O)O)s3)cc2c(=O)[nH]1` was tested, and the IC50 was 1200 nM.
Compound `Cc1nc2ccc(CN(CCO)c3ccc(C(=O)N[C@@H](CCC(=O)O)C(=O)O)c(F)c3)cc2c(=O)[nH]1` has an IC50 of 77.6 nM.
In the case of `Cc1nc2ccc(CN(C)c3cnc(C(=O)N[C@@H](CCC(=O)O)C(=O)O)nc3)cc2c(=O)[nH]1`, the IC50 is reported as 2340 nM.
Compound `Cc1nc2ccc(CN(C)c3ccc(C(=O)N[C@@H](CCC(=O)O)C(=O)O)nc3)cc2c(=O)[nH]1` has an IC50 of 347 nM.
`C#CCN(Cc1ccc2nc(C)[nH]c(=O)c2c1)c1ccc(C(=O)N[C@@H](CCC(=O)O)C(=O)O)c(F)c1` was tested, and the IC50 was 20 nM.
In the case of `Cc1nc2ccc(CN(CCF)c3ccc(C(=O)N[C@@H](CCC(=O)O)C(=O)O)s3)cc2c(=O)[nH]1`, the IC50 is reported as 550 nM.
`COCCN(Cc1ccc2nc(C)[nH]c(=O)c2c1)c1ccc(C(=O)N[C@@H](CCC(=O)O)C(=O)O)cc1` showed an IC50 of 16200 nM.
`C#CCN(Cc1ccc2nc(N)[nH]c(=O)c2c1)c1ccc(C(=O)N[C@@H](CCC(=O)O)C(=O)O)c(F)c1` was tested, and the IC50 was 8.91 nM.
`Cc1nc2ccc(CNc3cnc(C(=O)N[C@@H](CCC(=O)O)C(=O)O)s3)cc2c(=O)[nH]1` was tested, and the IC50 was 7080 nM.
For `Cc1nc2ccc(CN(CCO)c3ccc(C(=O)N[C@@H](CCC(=O)O)C(=O)O)cc3)cc2c(=O)[nH]1`, the IC50 was 501 nM.
In the case of `CCc1nc2ccc(CNc3ccc(C(=O)N[C@@H](CCC(=O)O)C(=O)O)cc3)cc2c(=O)[nH]1`, the IC50 is reported as 20000 nM.
For `C=CCN(Cc1ccc2nc(C)[nH]c(=O)c2c1)c1cnc(C(=O)N[C@@H](CCC(=O)O)C(=O)O)s1`, the IC50 was 1070 nM.
`CN(Cc1ccc2nc(CF)[nH]c(=O)c2c1)c1ccc(C(=O)N[C@@H](CCC(=O)O)C(=O)O)cc1` was tested, and the IC50 was 2880 nM.
Work on `Cc1nc2ccc(CNc3ccc(C(=O)N[C@@H](CCC(=O)O)C(=O)O)c(F)c3)cc2c(=O)[nH]1` yielded an IC50 of 3800 nM.
For `Cc1nc2ccc(CN(CCF)c3ccc(C(=O)N[C@@H](CCC(=O)O)C(=O)O)c(F)c3)cc2c(=O)[nH]1`, the IC50 was 42.7 nM.
With `C#CCN(Cc1ccc2nc(C)[nH]c(=O)c2c1)c1ccc(C(=O)N[C@@H](CCC(=O)O)C(=O)O)c(N)c1` the IC50 was 288 nM.
`CCN(Cc1ccc2nc(C)[nH]c(=O)c2c1)c1ccc(C(=O)N[C@@H](CCC(=O)O)C(=O)O)s1` was tested, and the IC50 was 575 nM.
For `C=CCN(Cc1ccc2nc(C)[nH]c(=O)c2c1)c1ccc(C(=O)N[C@@H](CCC(=O)O)C(=O)O)c(F)c1`, the IC50 was 75.9 nM.
Compound `CCN(Cc1ccc2nc(C)[nH]c(=O)c2c1)c1ccc(C(=O)N[C@@H](CCC(=O)O)C(=O)O)cc1F` has an IC50 of 676 nM.
`CCCN(Cc1ccc2nc(C)[nH]c(=O)c2c1)c1ccc(C(=O)N[C@@H](CCC(=O)O)C(=O)O)s1` showed an IC50 of 1860 nM.
`CCN(Cc1ccc2nc(C)[nH]c(=O)c2c1)c1ccc(C(=O)N[C@@H](CCC(=O)O)C(=O)O)c(N)c1` showed an IC50 of 309 nM.
In the case of `C#CCN(Cc1ccc2nc(C)[nH]c(=O)c2c1)c1ccc(C(=O)N[C@@H](CCC(=O)O)C(=O)O)c(C)c1`, the IC50 is reported as 501 nM.
Work on `CCN(Cc1ccc2nc(C)[nH]c(=O)c2c1)c1ccc(C(=O)N[C@@H](CCC(=O)O)C(=O)O)c(Cl)c1` yielded an IC50 of 120 nM.
With `Cc1nc2ccc(CN(CCO)c3ccc(C(=O)N[C@@H](CCC(=O)O)C(=O)O)cc3F)cc2c(=O)[nH]1` the IC50 was 3550 nM.
